The text below walks through data of PMC6008491, “Discovery of a novel allosteric inhibitor scaffold for polyadenosine-diphosphate-ribose polymerase 14 (PARP14) macrodomain 2” (Bioorganic & Medicinal Chemistry, 2018).

The structures appear in SMILES notation.

The target in one test is T1, PARP14 MD2 (Homo sapiens, UniProt Q460N5).
T1 sequence (Q460N5 1003-1190 limits assumed): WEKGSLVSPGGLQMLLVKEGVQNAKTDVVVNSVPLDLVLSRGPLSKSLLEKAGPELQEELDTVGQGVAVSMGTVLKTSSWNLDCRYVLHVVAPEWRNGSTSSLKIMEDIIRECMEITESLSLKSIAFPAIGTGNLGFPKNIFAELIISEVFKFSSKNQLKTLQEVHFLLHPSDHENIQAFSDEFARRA
Kind of test: AlphaScreen competitive binding assay, displacement of ADP-ribose peptide from PARP14 MD2. Further details: PARP14 MD2 (second MD of PARP14).
Settings: not given
An excerpt:
Compounds were profiled for binding activity with PARP14 MD2 through a competitive (AlphaScreen™) binding assay measuring the displacement of ADP-ribose peptide from PARP14 MD2.[11a]
(Alpha assays give light when donor and acceptor beads are brought close together.)
Consider `CC(=O)Nc1ccccc1-c1ccccc1Nc1ccccc1` [compound 31, N-[2'-(Phenylamino)-(1,1'-biphenyl)-2-yl]acetamide], for which the “inhibition of PARP14 MD2 (in words)” value was “completely inactive”.
Still for that read-out and setting: the entry for `CC(Nc1ccccc1-c1cccc2c1[nH]c1ccccc12)C(F)(F)F` (racemic) [compound 51, (±)-2-(9H-Carbazol-1-yl)-N-(1,1,1-trifluoropropan-2-yl)aniline] is “complete loss of activity”.

The test is the same for the next values; noted with them: Table 1; AlphaScreen, PARP14 MD2; read-out: IC50.
For orientation: IC50 means the concentration that inhibits the measured activity by half. Take `CN(C)S(=O)(=O)Nc1ccccc1-c1cccc2c1[nH]c1ccccc12` [compound 71, N1-(2-(9H-Carbazol-1-yl)phenyl)-N2,N2-dimethylsulfamide]: the half-inhibitory concentration (IC50) was determined as 2.5 ± 0.1 µM.
Same read-out and setting: for `Cc1oncc1S(=O)(=O)Nc1ccccc1-c1cccc2c1[nH]c1ccccc12` [compound 70, N-(2-(9H-Carbazol-1-yl)phenyl)-5-methylisoxazole-4-sulfonamide] the value was > 50 µM.
The same measure, in the same setting: the figure for `CCCS(=O)(=O)Nc1ccccc1-c1cccc2c1[nH]c1ccccc12` [compound 63, N-(2-(9H-Carbazol-1-yl)phenyl)propane-1-sulfonamide] is 2.9 ± 0.1 µM.
On the same count and under the same terms, for `O=C(Nc1ccccc1-c1cccc2c1[nH]c1ccccc12)C1CCCCC1` [compound 75, N-(2-(9H-carbazol-1-yl)phenyl)cyclohexanecarboxamide] the value was > 50 µM.
With `CCC(=O)Nc1ccccc1-c1cccc2c1[nH]c1ccccc12` [compound 66, N-(2-(9H-carbazol-1-yl)phenyl)propionamide], the IC50 was determined as 1 ± 0.03 µM.
Take `Cc1ccc(-c2cccc3c2[nH]c2ccccc23)c(N)c1` [compound 59, 2-(9H-Carbazol-1-yl)-5-methylaniline]: the IC50 is > 50 µM.
Same read-out and setting: the figure for `O=C(Nc1ccccc1-c1cccc2c1[nH]c1ccccc12)c1ccccc1` [compound 77, N-(2-(9H-carbazol-1-yl)phenyl)benzamide] is 1.9 ± 0.07 µM.
Still for that read-out and setting: the figure for `CCNc1ccccc1-c1cccc2c1[nH]c1ccccc12` [compound 53, 2-(9H-Carbazol-1-yl)-N-ethylaniline] is > 50 µM; for `Cc1cccc(N)c1-c1cccc2c1[nH]c1ccccc12` [compound 61, 2-(9H-Carbazol-1-yl)-3-methylaniline] it is > 50 µM.
On the same count and under the same terms, for `COc1cccc(C(=O)Nc2ccccc2-c2cccc3c2[nH]c2ccccc23)c1` [compound 81, N-(2-(9H-Carbazol-1-yl)phenyl)-3-methoxybenzamide] the value was 12.7 ± 1.5 µM; for `O=S(=O)(Cc1ccccc1)Nc1ccccc1-c1cccc2c1[nH]c1ccccc12` [compound 79, N-(2-(9H-Carbazol-1-yl)phenyl)-1-phenylmethanesulfonamide], 3.6 ± 0.3 µM.
Consider `CCCCS(=O)(=O)Nc1ccccc1-c1cccc2c1[nH]c1ccccc12` [compound 64, N-(2-(9H-Carbazol-1-yl)phenyl)butane-1-sulfonamide], for which the IC50 came to 3.3 ± 0.1 µM.
The same measure, in the same setting: for `CN(C)CC(=O)Nc1ccccc1-c1cccc2c1[nH]c1ccccc12` [compound 65, N-(2-(9H-carbazol-1-yl)phenyl)-2-(dimethylamino)acetamide] the value was 5.5 ± 0.6 µM; for `O=C(Nc1ccccc1-c1cccc2c1[nH]c1ccccc12)c1ccco1` [compound 76, N-(2-(9H-carbazol-1-yl)phenyl)furan-2-carboxamide], > 50 µM; for `O=C(Nc1ccccc1-c1cccc2c1[nH]c1ccccc12)C(F)(F)F` [compound 73, N-(2-(9H-carbazol-1-yl)phenyl)-2,2,2-trifluoroacetamide], 1.1 ± 0.07 µM.
As to `COCCS(=O)(=O)Nc1ccccc1-c1cccc2c1[nH]c1ccccc12` [compound 69, N-(2-(9H-Carbazol-1-yl)phenyl)-2-methoxyethane-1-sulfonamide], the IC50 is 8.6 ± 0.4 µM.
The same measure, in the same setting: the figure for `CCS(=O)(=O)Nc1ccccc1-c1cccc2c1[nH]c1ccccc12` [compound 62, N-(2-(9H-carbazol-1-yl)phenyl)ethanesulfonamide] is 1.2 ± 0.03 µM.
The same measure, in the same setting: for `CC(=S)Nc1ccccc1-c1cccc2c1[nH]c1ccccc12` [compound 52, N-[2-(9H-Carbazol-1-yl)phenyl]thioacetamide] the value was 10.5 ± 0.4 µM; for `CCCCC(=O)Nc1ccccc1-c1cccc2c1[nH]c1ccccc12` [compound 68, N-(2-(9H-carbazol-1-yl)phenyl)pentanamide], > 50 µM; for `Nc1ccc(C(F)(F)F)cc1-c1cccc2c1[nH]c1ccccc12` [compound 60, 2-(9H-Carbazol-1-yl)-4-(trifluoromethyl)aniline], > 50 µM.
Take `COc1ccccc1C(=O)Nc1ccccc1-c1cccc2c1[nH]c1ccccc12` [compound 80, N-(2-(9H-Carbazol-1-yl)phenyl)-2-methoxybenzamide]: the IC50 was > 50 µM.

Staying with this test, now noted: Table 2; AlphaScreen, PARP14 MD2; read-out: IC50.
As for `O=C(Cc1ccc(F)cc1)Nc1ccccc1-c1cccc2c1[nH]c1ccccc12` [compound 93, N-(2-(9H-Carbazol-1-yl)phenyl)-2-(4-fluorophenyl)acetamide], the IC50 was > 50 µM.
On the same count and under the same terms, the figure for `O=C(Cc1ccc(=O)[nH]c1)Nc1ccccc1-c1cccc2c1[nH]c1ccccc12` [compound 88, N-(2-(9H-Carbazol-1-yl)phenyl)-2-(6-oxo-1,6-dihydropyridin-3-yl)acetamide] is 6.6 ± 0.4 µM.
On the same count and under the same terms, the figure for `Cc1ccc(C)c(CC(=O)Nc2ccccc2-c2cccc3c2[nH]c2ccccc23)c1` [compound 101, N-(2-(9H-Carbazol-1-yl)phenyl)-2-(2,5-dimethylphenyl)acetamide] is 44.6 ± 10.4 µM; for `N#Cc1cccc(CC(=O)Nc2ccccc2-c2cccc3c2[nH]c2ccccc23)c1` [compound 107, N-(2-(9H-Carbazol-1-yl)phenyl)-2-(3-cyanophenyl)acetamide] it is 2.1 ± 0.1 µM; for `O=C(Cc1ccccc1F)Nc1ccccc1-c1cccc2c1[nH]c1ccccc12` [compound 90, N-(2-(9H-Carbazol-1-yl)phenyl)-2-(2-fluorophenyl)acetamide] it is 2.8 ± 0.2 µM.
On the same count and under the same terms, for `O=C(Cc1ccc(Cl)cc1)Nc1ccccc1-c1cccc2c1[nH]c1ccccc12` [compound 96, N-(2-(9H-Carbazol-1-yl)phenyl)-2-(4-chlorophenyl)acetamide] the value was 6.2 ± 0.6 µM; for `Cc1ccc(CC(=O)Nc2ccccc2-c2cccc3c2[nH]c2ccccc23)cc1` [compound 92, N-(2-(9H-Carbazol-1-yl)phenyl)-2-(p-tolyl)acetamide], 8.7 ± 1.2 µM; for `COc1cccc(CC(=O)Nc2ccccc2-c2cccc3c2[nH]c2ccccc23)c1` [compound 103, N-(2-(9H-Carbazol-1-yl)phenyl)-2-(3-methoxyphenyl)acetamide], 6.6 ± 0.5 µM.
For `O=S(=O)(Cc1cccc(F)c1)Nc1ccccc1-c1cccc2c1[nH]c1ccccc12` [compound 105, N-(2-(9H-Carbazol-1-yl)phenyl)-1-(3-fluorophenyl)methanesulfonamide], the half-maximal inhibitory concentration (IC50) is 1.4 ± 0.1 µM.
On the same count and under the same terms, the figure for `O=S(=O)(Cc1ccccc1F)Nc1ccccc1-c1cccc2c1[nH]c1ccccc12` [compound 89, N-(2-(9H-Carbazol-1-yl)phenyl)-1-(2-fluorophenyl)methanesulfonamide] is 2.4 ± 0.1 µM; for `O=C(Cc1cccc(F)c1)Nc1ccccc1-c1cccc2c1[nH]c1ccccc12` [compound 104, N-(2-(9H-Carbazol-1-yl)phenyl)-2-(3-fluorophenyl)acetamide] it is 4.2 ± 0.3 µM; for `N#Cc1ccc(CC(=O)Nc2ccccc2-c2cccc3c2[nH]c2ccccc23)cn1` [compound 87, N-(2-(9H-Carbazol-1-yl)phenyl)-2-(6-cyanopyridin-3-yl)acetamide] it is 3.5 ± 0.2 µM.
Consider `N#Cc1cc(CC(=O)Nc2ccccc2-c2cccc3c2[nH]c2ccccc23)ccn1` [compound 86, N-(2-(9H-Carbazol-1-yl)phenyl)-2-(2-cyanopyridin-4-yl)acetamide], for which the half-inhibitory concentration (IC50) came to 2.4 ± 0.2 µM.
On the same count and under the same terms, the figure for `COc1ccc(CC(=O)Nc2ccccc2-c2cccc3c2[nH]c2ccccc23)cc1OC` [compound 98, N-(2-(9H-Carbazol-1-yl)phenyl)-2-(3,4-dimethoxyphenyl)acetamide] is 4.3 ± 0.3 µM.
Turning to `COc1ccc(CC(=O)Nc2ccccc2-c2cccc3c2[nH]c2ccccc23)cc1` [compound 94, N-(2-(9H-Carbazol-1-yl)phenyl)-2-(4-methoxyphenyl)acetamide], the IC50 is 6.2 ± 0.6 µM.

The test is the same for the next values; noted with them: text and figures; read-out: PARP14 MD2 IC50.
In the case of `CC(=O)Nc1ccncc1-c1cccc2c1[nH]c1ccccc12` [compound 15], the concentration for half-maximal inhibition (IC50) is > 50 µM.
Still for that read-out and setting: for `CC(=O)Nc1ccccc1-c1nccc2c1[nH]c1ccccc12` [compound 18] the value was 30 µM; for `CC(=O)Nc1ccccc1-c1cccc2c3ccccc3n(Cc3ccccc3)c12` [compound 25, N-[2-(9-Benzyl-9H-carbazol-1-yl)phenyl]acetamide], > 50 µM; for `CC(=O)Nc1ccccc1-c1cccc2c3ccccc3n(C)c12` [compound 24, N-[2-(9-Methyl-9H-carbazol-1-yl)phenyl]acetamide], > 50 µM.
On to `CC(=O)Nc1ccccc1-c1cn2c3ccccc3c3cccc(c1=O)c32` [compound 20, N-[2-(4-Oxo-4H-pyrido[3,2,1-jk]carbazol-5-yl)phenyl]acetamide], for which the half-maximal inhibitory concentration (IC50) was > 50 µM.
The same measure, in the same setting: the figure for `CC(=O)Nc1ccccc1-c1cccc2c1[nH]c1c(Cl)c(Cl)ccc12` [compound 37, N-[2-(7,8-Dichloro-9H-carbazol-1-yl)phenyl]acetamide] is 1.4 µM; for `CC(=O)Nc1ccccc1-c1cccc2c1C(O)c1ccccc1-2` (centres unmarked) [compound 29, N-[2-(9-Hydroxy-9H-fluoren-1-yl)phenyl]acetamide] it is > 50 µM; for `CC(=O)Nc1ccccc1-c1cccc2c1[nH]c1ccc(Cl)cc12` [compound 38, N-[2-(6-Chloro-9H-carbazol-1-yl)phenyl]acetamide] it is 3 µM.
Still for that read-out and setting: for `CC(=O)Nc1ccccc1-c1cn2c3ccccc3c3ccnc(c1=O)c32` [compound 19] the value was > 50 µM.
